Source: patent publication US20260216218A1, “CANNABINOID COMPOSITIONS, AND USES THEREOF IN TREATMENT OF NEURODEGENERATIVE DISEASES OR DISORDERS AND CANCERS” (Biopharmaceutical Research Company, priority 2023, published 2026)

Tested on: BR5270 transgenic Caenorhabditis elegans strain
Experiment: Survival (lifespan) in the preclinical Tau C. elegans model
Assay type: in vivo
Conditions: for Survival of C. elegans: 40 μM; for % Alive: BR5270, 40 μM
Procedure: Many neurodegenerative diseases and conditions associated with neuronal insult are characterized by intracellular aggregates of the microtubule associated protein Tau. […] Due to the significant impact on lifespan and locomotion defect produced by this model, time/cost-effective and high throughput acquisition of data, the C. elegans model of tauopathy serves as an advantageous screening tool for the discovery of novel modulators of neurodegeneration.
Cannabinoid botanical drug substances (20 μM, 40 μM, 80 μM) were prepared in accordance with the protocol described in Example 1 above. The exemplary cannabinoid botanical drug substance used in the study of this example includes CBD, CBG and THC present as the major components in a ratio of 50:20:1.
The effect of the two different complex botanical mixtures described above were compared to the comparative control, cannabidiol (40 μM) and a no treatment negative control in the BR5270 transgenic strain. Additional no-treatment negative control and healthspan extension positive control (cannabidiol 40 μM) in wild-type arms served as added comparators. All examinations were performed in triplicate. The impact of three doses of each compound on animal survival and activity levels were examined on days 4, 8, 12, and 16 of animal life. These time points represent the first day of adulthood, early-, mid-, and late-life periods in the C. elegans lifespan.

With `C=C(C)[C@@H]1CCC(C)=C[C@H]1c1c(O)cc(CCCCC)cc1O` [CBD, cannabidiol] the “Survival of C. elegans” value (Day 12 (Table 1b summary)) was 39, the “Survival of C. elegans” value (Day 16 (Table 1b summary)) was 10 and the “% Alive” value (day 4 of animal life) was 100%. The “% Alive” value (day 8 of animal life) was 73.17%, the “% Alive” value (day 12 of animal life) was 39.39% and the “% Alive” value (day 16 of animal life) was 9.738%.
